2 compounds from US8883745B2, “C—glycolipids with enhanced Th-1 profile” (New York University, priority 2006, dated 2014) can be followed below.

Structures are written as SMILES.

The subject of one test is IFN-γ. Description: In vitro IFN-γ ELISPOT assay using PBMCs and immature DCs. The note with it: 100 ng/ml glycolipid, 22-26 hours co-culture with immature DCs. The class given is cell-based, human. On the procedure:
CD14+ cells were isolated from leukopaks, using magnetic beads (Miltenyi biotec, Auburn, Calif.) coupled to an anti-CD14 monoclonal antibody. Immature dendritic cells (DCs) were then generated from the CD14+ cells after a three-day incubation in the presence of 300 U/ml GM-CSF (R&D systems, Minneapolis, Minn.) and 100 U/ml IL-4 (R&D systems, Minneapolis, Minn.). CD14-cells were used as Peripheral Blood Mononuclear Cells (PBMCs) for the following experiments.
96 well nitrocellulose plates (Milititer HA, Millipore) were coated with 10 μg/ml of anti-human interferon γ mAb (Mabtech, Ohio), contained in 75 μl of PBS. After overnight incubation at room temperature, the wells were washed repeatedly and blocked with culture medium for 1 hour at 37° C. Following irradiation with 3000 rads, 5×10^4 immature dendritic cells were co-cultured with 5×10^5 of syngeneic CD14− PBMCs in the presence of 100 ng/ml of various glycolipids (i.e., GCK109 [A-1 trans-conformer], GCK151 [A-1 cis-conformer], GCK127 [A-2], GCK152 [A-7], and control compounds CRONY=α-C-GalCer and KRN=α-GalCer) in the ELISPOT plate for 22-26 hours at 37° C. and 5% CO2. […] After 10 to 15 minutes, the number of spots corresponding to IFN-γ secreting cells was determined using a stereomicroscope. […]

Another test relates to IL-4. Description: In vitro IL-4 ELISPOT assay using PBMCs and immature DCs. The format is cell-based, human. The note with it: 100 ng/ml glycolipid, 22-26 hours co-culture with immature DCs.

Take `CCCCCCCCCCCCCCCCCC/C=C\CCCCCCCCC(=O)N[C@@H](/C=C/[C@H]1OC(CO)[C@H](O)[C@H](O)C1O)[C@H](O)[C@H](O)CCCCCCCCCCCCCC` (stereo partly shown) [GCK151]: the “frequency of PBMCs secreting IFN-γ (ELISPOT), compared with KRN” value with IFN-γ is listed as “high frequency”. The “frequency of PBMCs secreting IL-4 (ELISPOT), compared with KRN” value with IL-4 was “high frequency”.
For `CCCCCCCCCCCCCC[C@@H](O)[C@@H](O)[C@H](/C=C/[C@H]1OC(CO)[C@H](O)[C@H](O)C1O)NC(=O)CCCCCCCc1ccccc1` (stereo partly shown) [A-7], the “frequency of PBMCs secreting IFN-γ (ELISPOT), compared with KRN” value in the test with IFN-γ is “high frequency”. Further, in the test with IL-4, the “frequency of PBMCs secreting IL-4 (ELISPOT), compared with KRN” value is given as “high frequency”.
